Columns and labels:
Type in all cases: cell-based
[1] = molecular target: T1, CYP1A1 (Homo sapiens, UniProt P04798); assay: Inhibition of CYP1A1 in human Caco-2 cells at 5 uM incubated for 12 hrs by EROD assay relative to control
T1 sequence (P04798 whole entry): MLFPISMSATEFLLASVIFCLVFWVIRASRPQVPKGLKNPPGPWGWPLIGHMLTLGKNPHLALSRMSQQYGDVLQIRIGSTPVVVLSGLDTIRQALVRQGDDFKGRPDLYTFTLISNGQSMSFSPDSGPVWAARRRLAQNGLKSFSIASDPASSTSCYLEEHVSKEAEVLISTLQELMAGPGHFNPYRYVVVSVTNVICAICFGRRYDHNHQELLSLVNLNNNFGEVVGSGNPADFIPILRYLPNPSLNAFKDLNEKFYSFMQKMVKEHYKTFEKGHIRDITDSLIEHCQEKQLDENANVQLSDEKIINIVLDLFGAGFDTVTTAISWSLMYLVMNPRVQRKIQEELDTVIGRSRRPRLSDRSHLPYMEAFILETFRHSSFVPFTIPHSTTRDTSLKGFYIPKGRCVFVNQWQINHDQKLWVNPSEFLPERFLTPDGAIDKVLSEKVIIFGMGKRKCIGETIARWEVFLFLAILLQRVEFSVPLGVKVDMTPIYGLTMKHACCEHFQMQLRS

[2] = molecular target: T2, Cytochrome P450 1A1 (Homo sapiens, UniProt P04798); assay: Inhibition of CYP1A1 in human Caco-2 cells assessed as relative activity by measuring fold change at 5.0 uM incubated for 12 hrs by EROD assay relative to control; settings: caco-2, 12 h
T2 sequence (P04798 whole entry): T1 sequence (P04798 whole entry)

[3] = molecular target: T3, CYP1A1 (Mus musculus, UniProt P00184); assay: Inhibition of CYP1A1 in mouse RAW264.7 cells assessed as relative activity by measuring fold change at 500 nM incubated for 12 hrs by EROD assay relative to control; settings: read-out: FC
T3 sequence (P00184 whole entry): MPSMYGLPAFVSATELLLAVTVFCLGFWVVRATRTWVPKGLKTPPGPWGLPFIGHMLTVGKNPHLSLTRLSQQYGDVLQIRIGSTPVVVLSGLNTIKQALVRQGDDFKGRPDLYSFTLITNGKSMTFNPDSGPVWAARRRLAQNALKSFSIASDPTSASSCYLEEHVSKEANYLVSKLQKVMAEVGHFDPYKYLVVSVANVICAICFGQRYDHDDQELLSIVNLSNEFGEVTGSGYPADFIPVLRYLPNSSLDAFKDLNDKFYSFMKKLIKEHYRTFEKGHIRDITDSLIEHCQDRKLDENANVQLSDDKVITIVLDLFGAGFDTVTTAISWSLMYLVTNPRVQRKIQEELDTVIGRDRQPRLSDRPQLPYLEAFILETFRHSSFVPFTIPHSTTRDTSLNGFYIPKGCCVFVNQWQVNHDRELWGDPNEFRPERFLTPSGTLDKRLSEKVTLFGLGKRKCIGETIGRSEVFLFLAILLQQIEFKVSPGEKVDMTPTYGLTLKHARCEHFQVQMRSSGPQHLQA

[4] = molecular target: T2, Cytochrome P450 1A1; assay: Inhibition of CYP1A1 in human Caco-2 cells incubated for 12 hrs by EROD assay; settings: caco-2, 12 h, at 50 to 5000 nM, dose 50-5000 nM
[5] = molecular target: T1, CYP1A1; assay: Inhibition of CYP1A1 in human Caco-2 cells assessed as relative activity by measuring fold change at 500 nM incubated for 12 hrs by EROD assay relative to control; settings: read-out: FC
[6] = molecular target: T3, CYP1A1; assay: Inhibition of CYP1A1 in mouse RAW264.7 cells assessed as relative activity by measuring fold change at 5 uM incubated for 12 hrs by EROD assay relative to control; settings: read-out: FC
[7] = molecular target: T3, CYP1A1; assay: Inhibition of CYP1A1 in mouse RAW264.7 cells at 5 uM incubated for 12 hrs by EROD assay relative to control

inhibition at 12 h, 5 µM [1]	fold change (FC) [2]	fold induction at 12 h, 0.5 µM [3]	inhibition (INH) [4]	fold induction at 12 h, 0.5 µM [5]	fold induction at 12 h, 5 µM [6]	inhibition at 12 h, 5 µM [7]	SMILES
100%	0.04	1.17	Dose-dependent-effect	0.32	1.02		Cn1c(=O)n(C)c2cc(C(=O)/C=C/c3ccccc3F)ccc21
	0.77	0.92		0.93	0.17		CC(=O)n1cc(/C=C/C(=O)c2ccc3c(c2)n(C)c(=O)n3C)c2ccccc21
	0.81	1.15		1.14	0.81		COc1ccc2c(c1)c(/C=C/C(=O)c1ccc3c(c1)n(C)c(=O)n3C)cn2Cc1ccccc1
	0.78	0.57		0.81	0.2		CSc1ccc(/C=C/C(=O)c2ccc3c(c2)n(C)c(=O)n3C)cc1
~80%	0.18	0.38		0.45	0.23	~80%	Cn1c(=O)n(C)c2cc(C(=O)/C=C/c3cccs3)ccc21
	0.35	0.62		0.82	0.44		Cn1c(=O)n(C)c2cc(C(=O)/C=C/C=C/c3ccccc3)ccc21
	0.15	1.03		0.62	0.29		Cn1c(=O)n(C)c2cc(C(=O)/C=C/c3cnc4ccccc4c3)ccc21
	0.51	0.82		0.83	0.6		Cn1c(=O)n(C)c2cc(C(=O)/C=C/c3ccc(C#N)cc3)ccc21
	0.88	0.9		0.83	0.16		Cn1c(=O)n(C)c2cc(C(=O)/C=C/c3ccccn3)ccc21
	0.31	0.82		0.66	0.52		Cn1c(=O)n(C)c2cc(C(=O)/C=C/c3cc4ccccc4o3)ccc21

The remaining lines, values behind:

SMILES	inhibition at 12 h, 5 µM [1]	fold change (FC) [2]	fold induction at 12 h, 0.5 µM [3]	inhibition (INH) [4]	fold induction at 12 h, 0.5 µM [5]	fold induction at 12 h, 5 µM [6]	inhibition at 12 h, 5 µM [7]
Cn1c(=O)n(C)c2cc(C(=O)/C=C/c3ccsc3)ccc21	~80%	0.19	0.58		0.43	0.32	~80%
Cn1c(=O)n(C)c2cc(C(=O)/C=C/c3cccc(OC(F)(F)F)c3)ccc21		0.17	0.62		0.58	0.16	
Cn1c(=O)n(C)c2cc(C(=O)/C=C/C#C[Si](C)(C)C)ccc21		0.11	0.55		0.66	0.15	
Cn1c(=O)n(C)c2cc(C(=O)/C=C/c3ncccn3)ccc21		0.88	0.73		1.05	0.72	
C#Cc1ccc(/C=C/C(=O)c2ccc(N(C)C(C)=O)cc2)cc1		0.78	1.16		0.81	1.04	
Cn1c(=O)n(C)c2cc(C(=O)/C=C/c3cc(F)cc(F)c3)ccc21		0.74	0.76		0.89	0.89	
Cn1c(=O)n(C)c2cc(C(=O)/C=C/C=C/c3ccc(F)cc3)ccc21		0.17	0.82		0.62	0.57	
CCCCOc1ccc(/C=C/C(=O)c2ccc3c(c2)n(C)c(=O)n3C)cc1		0.23	0.95		0.91	0.77	
